Assay results from ChEMBL document CHEMBL5260848, “Recent advancements in the development of bioactive pyrazoline derivatives” (Eur J Med Chem, 2020).
In brackets after ≈: the same amount, converted by molar mass.

Experiments:
HepG2 [1] = experiment: Cytotoxicity against human HepG2 cells assessed as growth inhibition; type: functional, cell-based
HSC-2 = experiment: Cytotoxicity against human HSC-2 cells assessed as reduction in cell viability incubated for 48 hrs by MTT assay; type: functional
[2] = Cytotoxicity against human HGF cells assessed as reduction in cell viability incubated for 48 hrs by MTT assay; type: functional
HepG2 [3] = experiment: cells; conditions: Homo sapiens
[4] = Cytotoxicity against human HPC cells assessed as reduction in cell viability incubated for 48 hrs by MTT assay; type: functional
[5] = Cytotoxicity against human HPLF cells assessed as reduction in cell viability incubated for 48 hrs by MTT assay; type: functional
MCF7 = experiment: cells; conditions: Homo sapiens
Ca9-22 = experiment: Cytotoxicity against human Ca9-22 cells assessed as reduction in cell viability incubated for 48 hrs by MTT assay; type: functional
HSC-3 = experiment: Cytotoxicity against human HSC-3 cells assessed as reduction in cell viability incubated for 48 hrs by MTT assay; type: functional
Mus musculus [6] = organism: Mus musculus; experiment: Antidepressant activity in Swiss albino mouse assessed as decrease in immobility time by forced swimming test; type: functional
[7] = system: Mycobacterium tuberculosis; experiment: microbe, parasite or virus in culture; conditions: H37Rv
Mus musculus [8] = organism: Mus musculus; experiment: Antidepressant activity in Swiss albino mouse assessed as decrease in immobility time by tail suspension test; type: functional
Mus musculus [9] = organism: Mus musculus; experiment: Antianxiety activity in mouse assessed as increase in number of entries in different arms; type: functional
Mus musculus [10] = organism: Mus musculus; experiment: Antidepressant activity in mouse assessed as […] by tail suspension test; type: functional
Mus musculus [11] = organism: Mus musculus; experiment: Antidepressant activity in mouse assessed as […] by forced swimming test; type: functional
DU-145 = experiment: Cytotoxicity against human DU-145 cells by SRB assay; type: functional
Tubulin (Homo sapiens) = Tubulin (Homo sapiens) (UniProt P68371+Q9H4B7+P0DPH7+P68366+Q13509+Q71U36+P04350+Q3ZCM7+P07437+P68363+Q9BQE3+Q6PEY2+Q13885+Q9BVA1+Q9BUF5); experiment: Inhibition of tubulin polymerization (unknown origin) by fluorescence assay relative to control; type: protein-complex assay; conditions: concentration not given here
A549 = experiment: Cytotoxicity against human A549 cells assessed as reduction in cell viability; type: functional, cell-based
Plasmodium falciparum = experiment: Antimalarial activity against chloroquine-sensitive Plasmodium falciparum 3D7; type: functional, organism-based
Pseudomonas aeruginosa [12] = experiment: Potency index, ratio of ampicillin MIC to compound MIC for Pseudomonas aeruginosa by agar dilution method; type: functional
Candida albicans = experiment: Antifungal activity against Candida albicans by agar dilution method; type: functional
Huh-7 = experiment: Cytotoxicity against human Huh-7 cells; type: functional, cell-based
HepG2 [13] = experiment: Cytotoxicity against human HepG2 cells; type: functional, cell-based
Rhizopus arrhizus = experiment: Antifungal activity against Rhizopus oryzae; type: functional
Staphylococcus aureus [14] = experiment: Antibacterial activity against Staphylococcus aureus; type: functional
Acetylcholinesterase = Acetylcholinesterase (Homo sapiens, UniProt P22303)
Acetylcholinesterase, sequence (P22303 whole entry): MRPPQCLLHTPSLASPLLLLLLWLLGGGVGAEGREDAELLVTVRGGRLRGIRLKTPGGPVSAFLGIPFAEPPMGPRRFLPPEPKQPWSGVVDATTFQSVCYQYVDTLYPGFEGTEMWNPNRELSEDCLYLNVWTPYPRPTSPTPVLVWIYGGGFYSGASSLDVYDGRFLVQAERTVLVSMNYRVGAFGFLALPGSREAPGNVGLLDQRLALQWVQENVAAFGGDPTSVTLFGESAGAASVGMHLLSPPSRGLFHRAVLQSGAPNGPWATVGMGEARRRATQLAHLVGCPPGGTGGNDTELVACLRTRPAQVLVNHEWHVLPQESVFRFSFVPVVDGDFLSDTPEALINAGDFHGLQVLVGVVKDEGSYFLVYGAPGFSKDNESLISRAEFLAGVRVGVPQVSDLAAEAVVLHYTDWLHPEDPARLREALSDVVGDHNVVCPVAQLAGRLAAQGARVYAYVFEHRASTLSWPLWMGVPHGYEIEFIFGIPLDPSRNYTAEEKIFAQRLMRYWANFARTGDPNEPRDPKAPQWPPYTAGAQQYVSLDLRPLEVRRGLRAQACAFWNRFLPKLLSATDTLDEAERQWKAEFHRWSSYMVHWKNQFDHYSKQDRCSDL

Aspergillus niger = experiment: Antifungal activity against Aspergillus niger by agar dilution method; type: functional
Plasmodium berghei = experiment: Antimalarial activity against Plasmodium berghei infected in mouse assessed as suppression percentage at 48.46 umol/kg administered daily relative to control; type: functional; conditions: dose 48.46 µmol/kg
Pseudomonas aeruginosa [15] = experiment: Antibacterial activity against Pseudomonas aeruginosa assessed as inhibition of bacterial growth; type: functional
Escherichia coli = experiment: Antibacterial activity against Escherichia coli assessed as inhibition of bacterial growth; type: functional
Bacillus subtilis = experiment: microbe, parasite or virus in culture
Staphylococcus aureus [16] = experiment: microbe, parasite or virus in culture

Fc1ccc(-c2csc(N3N=C(c4cccs4)CC3c3ccc(Cl)cc3Cl)n2)cc1 (stereo unspecified)
IC50 (HepG2 [1]): 1.7 µM

O=c1[nH]cc(F)c(=O)[nH]1 [FLUOROURACIL]
CC50 (HSC-2): 13 µM | CC50 [2]: 13 µM | IC50 (HepG2 [3]): 33.5 µg/mL (≈ 258 µM) | CC50 [4]: 13 µM | CC50 [5]: 13 µM | IC50 (MCF7): 30 µg/mL (≈ 231 µM) | CC50 (Ca9-22): 13 µM | CC50 (HSC-3): 13 µM

Cc1nc(-c2cc(F)cc(F)c2)ccc1C1=NNC(c2c(F)cccc2Cl)C1 (stereo unspecified)
Time (Mus musculus [6]): 66.67 s | MIC [7]: 12.5 µg/mL (≈ 31.1 µM) | Time (Mus musculus [8]): 70.33 s

Oc1ccc(C2=NNC(c3ccc(Cl)cc3)C2)cc1 (stereo unspecified)
Activity (Mus musculus [9]): 17.67 | Time (Mus musculus [10]): 21.17 s | Time (Mus musculus [11]): 21.17 s

COc1ccc(/C=C/C(=O)c2cc(OC)c(OC)c(OC)c2)cc1OCc1cn(Cc2ccc(N)cc2)nn1
GI50 (DU-145): 1.5 µM | inhibition (Tubulin (Homo sapiens)): 36%

COc1cc(C2CC(c3ccc(Cl)cc3)=NN2C(N)=S)cc(Br)c1O (stereo unspecified)
IC50 (A549): 44.1 µM

COc1cc(C2CC(c3cc4ccccc4oc3=O)=NN2C(=O)c2ccncc2)cc(OC)c1OC (stereo unspecified)
IC50 (Plasmodium falciparum): 9.68 µg/mL (≈ 19.9 µM)

Cc1cccc2cc(C3CC(c4cc(Br)ccc4O)=NN3)c3nnnn3c12 (stereo unspecified)
Ratio (Pseudomonas aeruginosa [12]): 2 | MIC (Candida albicans): 25 µg/mL (≈ 59.1 µM)

N#Cc1c(-c2ccc(F)cc2)nc(N2N=C(c3c4ccccc4cc4ccccc34)CC2c2ccc(F)cc2)[nH]c1=O (stereo unspecified)
IC50 (Huh-7): 6.13 µg/mL (≈ 11.1 µM) | IC50 (HepG2 [13]): 5.34 µg/mL (≈ 9.65 µM)

COc1ccc(C2CC(c3cc4ccccc4oc3=O)=NN2c2ccccc2)cc1OC (stereo unspecified)
MIC (Rhizopus arrhizus): 12.5 µg/mL (≈ 29.3 µM) | MIC (Staphylococcus aureus [14]): 12.5 µg/mL (≈ 29.3 µM)

O=C(/C=C/c1ccc(N2CCCCC2)cc1)c1sccc1Cl
IC50 (Acetylcholinesterase): 0.16 µM

Cc1ccc2c(c1)cc(C1CC(c3cc(Br)ccc3O)=NN1)c1nnnn12 (stereo unspecified)
MIC (Aspergillus niger): 25 µg/mL (≈ 59.1 µM)

CCC(=O)N1N=C(c2ccccc2)CC1c1cn(-c2ccccc2)nc1-c1ccc(C)cc1 (stereo unspecified)
Activity (Plasmodium berghei): 45.52%

Cc1ccc2cc(C3CC(c4cc(Cl)sc4Cl)=NN3)c(Cl)nc2c1 (stereo unspecified)
IC50 (Acetylcholinesterase): 0.15 µM

Cc1ccc(C(=O)/C=C/c2ccc(N3CCCCC3)cc2)s1
IC50 (Acetylcholinesterase): 0.13 µM

COc1ccc(C2CC(c3ccc(-c4cc(F)cc(F)c4)nc3C)=NN2)cc1OC (stereo unspecified)
Time (Mus musculus [6]): 66.67 s | MIC [7]: 12.5 µg/mL (≈ 30.5 µM) | Time (Mus musculus [8]): 70.33 s

CN(C)c1ccc(C2CC(c3c4ccccc4cc4ccccc34)=NN2c2nc(-c3ccc(F)cc3)c(C#N)c(=O)[nH]2)cc1 (stereo unspecified)
IC50 (HepG2 [13]): 4.21 µg/mL (≈ 7.28 µM)

COc1ccc(C2CC(c3ccc(O)cc3)=NN2)cc1OC (stereo unspecified)
Activity (Mus musculus [9]): 15.5 | Time (Mus musculus [10]): 21.17 s | Time (Mus musculus [11]): 21.17 s

COc1cc(C2CC(c3c4ccccc4cc4ccccc34)=NN2c2nc(-c3ccc(F)cc3)c(C#N)c(=O)[nH]2)cc(OC)c1OC (stereo unspecified)
IC50 (Huh-7): 4.78 µg/mL (≈ 7.64 µM)

CC(=O)N1N=C(c2ccc(Br)cc2)CC1c1cc(Cl)ccc1Oc1c([N+](=O)[O-])cc(C(F)(F)F)cc1[N+](=O)[O-] (stereo unspecified)
MIC (Pseudomonas aeruginosa [15]): 0.39 µg/mL (≈ 0.621 µM) | MIC (Escherichia coli): 0.39 µg/mL (≈ 0.621 µM) | MIC (Bacillus subtilis): 3.12 µg/mL (≈ 4.98 µM) | MIC (Staphylococcus aureus [16]): 3.12 µg/mL (≈ 4.98 µM)

Cc1nc(-c2ccc(Br)cc2)ccc1C1=NNC(c2c(F)cccc2Cl)C1 (stereo unspecified)
Time (Mus musculus [6]): 66.67 s | MIC [7]: 12.5 µg/mL (≈ 28.1 µM) | Time (Mus musculus [8]): 70.33 s

COc1cc(C2CC(c3ccc(Br)cc3)=NN2C(N)=S)cc(Br)c1O (stereo unspecified)
IC50 (A549): 51 µM
